Data reported in BigSolDB 2.1.

Nc1nc(=O)[nH]cc1F
solubility (mole fraction)
Details	in 1,4-dioxane	in 2-butanone	in DMF	in DMSO	in acetone	in acetonitrile	in ethyl acetate	in isopropanol	in n-butanol	in n-propanol
283.15 K	1.13e-05	4.37e-05	0.00113	0.00559	6.9e-05	7e-06	3.5e-06	0.00016	0.000282	0.000222
288.15 K	1.51e-05	5.91e-05	0.00127	0.00611	8.62e-05	9.6e-06	4.5e-06	0.000204	0.000332	0.000272
293.15 K	1.92e-05	7.74e-05	0.00146	0.00675	0.000107	1.31e-05	6.2e-06	0.000253	0.000399	0.000334
298.15 K	2.37e-05	9.76e-05	0.00169	0.00754	0.000131	1.77e-05	8.6e-06	0.000314	0.000477	0.000406
303.15 K	2.82e-05	0.000121	0.00193	0.00838	0.000158	2.23e-05	1.14e-05	0.000382	0.000567	0.000489
308.15 K	3.43e-05	0.000149	0.0022	0.00932	0.000192	2.84e-05	1.46e-05	0.000461	0.000674	0.000577
313.15 K	4.17e-05	0.000184	0.00252	0.0103	0.000224	3.58e-05	1.93e-05	0.000548	0.000787	0.000677
318.15 K	5.08e-05	0.000223	0.00287	0.0115	0.000273	4.5e-05	2.45e-05	0.000643	0.000916	0.000792
323.15 K	6.07e-05	0.000271	0.00329	0.0129	0.000321	5.67e-05	3.11e-05	0.000757	0.00107	0.000923
